According to patent US7723299B2, “Methods for treating rheumatoid arthritis using a CTLA-4 fusion protein” (ForHumanTech. Co., Ltd., priority 2005, dated 2010):
No end group written: not given here.

How the values were obtained:
[1] = tested on: Jurkat T cells or primary human CD4^+ T cells; assay: Induction of CD69 and CD25 on activated T cells, FACS; assay type: cell-based; details: anti-CD28 mAb and plate-bound anti-CD3 mAb stimulation
Procedure: (§1) Primary human CD4^+ T cells were purified from buffy coats from healthy donors. PBMC were isolated by density gradient centrifugation using Histopaque (Sigma). The lymphocyte layer was collected and CD4^+ T cells were isolated by MACS column using CD4 microbeads (Miltenyi Biotec) (Busch R., et al., J. Immunol. Methods 286:97-109 (2004)).
(§2) One million Jurkat (E6.1) cells or primary human CD4^+ T cells were treated with Hph-1-ctCTLA-4 for 1 hour, then washed with PBS and incubated with 0.25 μg of anti-CD28 mAb (Pharmingen) for 20 min at 4° C. The anti-CD28 mAb bound cells were further activated in 0.05 μg of anti-CD3 mAb (Pharmingen) coated plates for 20 hours. Each cell was stained with anti-CD69-PE and anti-CD25-FITC antibodies (Pharmingen) and analyzed by FACS calibur (Becton Dickinson). The supernatant in each well was analyzed for the level of secreted IL-2 by ELISA (R&D system).
(§3) To examine whether the delivered Hph-1-ctCTLA-4 can inhibit T cell activation, Jurkat T cells or primary human CD4^+ T cells were treated with Hph-1-ctCTLA-4 and stimulated with anti-CD28 mAb and plate-bound anti-CD3 mAb. The levels of activation-induced surface proteins such as CD69 and CD25 were analyzed by FACS.

OVA-challenged mice = assay: OVA-induced allergic asthma model; details: for histological examination of lung tissues, infiltration of inflammatory cells / infiltration of inflammatory cells (eosinophils, macrophages, neutrophils, lymphocytes) into BAL fluid: OVA challenge; for infiltration of inflammatory cells (eosinophils, macrophages, neutrophils, lymphocytes) into BAL fluid: intra-nasal pretreatment
[2] = tested on: Jurkat T cells and primary human CD4^+ T cells; assay: IL-2 secretion of T cells activated with anti-CD3 and anti-CD28 mAbs, ELISA; assay type: cell-based; details: for inhibition of induction of IL-2 secretion: Jurkat or human CD4^+ T cells, fusion and control proteins
Procedure: as §1, §2, §3

Jurkat T cells = assay: Transduction efficiency and kinetics of Hph-1-ctCTLA-4, intracellular staining; assay type: cell-based
Procedure: Transduction efficiency of Hph-1-HA-ctCTLA-4 was analyzed by intracellular staining using HA-fluorescein mAb (Cell Signaling). After cells were permeablized by cytofix/cytoperm solution (Pharmingen) and incubated with HA-fluorescein mAb at 4° C. for 30 min. Intracellular fluorescence was determined by FACS calibur (Becton Dickinson).
By taking advantage of the capacity of Hph-1-PTD to deliver a large target protein into the cells or organs in vivo through nasal airway, a fusion protein of Hph-1-PTD and the cytoplasmic domain of CTLA-4 (Hph-1-PTD-ctCTLA-4) was constructed as described in FIG. 3A, to be used for local suppression of the immune response in an asthma model. We constructed control proteins comprised of ctCTLA-4 without Hph-1-PTD and Hph-1-ctCTLA-4YF, in which two tyrosine residues essential for its negative function were mutated into phenylalanine. The transduction efficiency of Hph-1-ctCTLA-4 was tested in Jurkat T cells, which are known not to express CTLA-4 on the surface. These cells were treated with different concentrations of Hph-1-ctCTLA-4 for different periods of time, and both the transduction efficiency and kinetics were analyzed by intracellular staining.

Zap70, ERK and JNK = assay: Tyrosine phosphorylation of signaling mediators after TcR stimulation; assay type: cell-based; details: T cells
Jurkat (E6.1) cells = assay: Transduction efficiency and kinetics of Hph-1-β-gal, western blot; assay type: cell-based
Procedure: (§4) After the Hph-1-β-gal construct was transduced into each cell line for 1 hour, the cells were washed with PBS and fixed immediately. Then, the fixed cells were incubated with X-Gal solution for 1-3 hours at 37° C. The mice tissue samples from the liver, kidney, heart, lung, spleen and brain were isolated at 12 hours after i.p. injection of Hph-1-β-gal, sectioned (in 10- and 50-μm sections), and assayed using an X-Gal staining kit (Roche) (Schwarze S. R., et al., Science 285:1569-1572 (1999)). The image was captured by fluorescence microscopy (Nikon). Transduction capacity of Hph-1-β-gal was also analyzed by western blot analysis. Equal numbers of cells were solubilized in SDS-PAGE sample buffer and the proteins were resolved on a 12% gel, and blotted onto PVDF, which was probed with monoclonal antibody (1:1,000) to β-gal (Cell Signaling). Bound antibody was detected using horseradish peroxidase-conjugated antibody to mouse IgG (1:5,000), followed by enhanced chemiluminescence (Pierce). To monitor the localization of the Hph-1-PTD-eGFP fusion protein, Hela cells were incubated with 10 μM of Hph-1-eGFP fusion protein for 30 min and the fluorescence of eGFP was analyzed by confocal microscopy (Bio Rad).
Using the purified Hph-1-β-gal fusion protein or the control β-gal protein, transduction efficiency was analyzed by western blot analysis in Jurkat (E6.1) cells. […] (FIG. 11B).

[3] = tested on: HeLa, HepG2, HaCat and NIH3T3; assay: Transduction efficiency in various cell lines, X-gal staining; assay type: cell-based; details: 1 hour incubation with Hph-1-β-gal
Procedure: FIG. 1C are photographs of transduction efficiency of Hph-1 in several cell lines, including HeLa, HepG2, HaCat and NIH3T3. After 1 hour incubation with Hph-1-β-gal, cells were fixed and stained with X-gal solution. The images were then captured by fluorescence microscopy.
as §4, with “Equal numbers of cells were solubilized in SDS-PAGE sample buffer and the proteins were resolved on a 12% gel, and blotted onto PVDF, which was probed with monoclonal antibody (1:1,000) to β-gal (Cell Signaling).” left out, “Rad). […]” for “Rad).”

[4] = single pretreatment, 25 μg, OVA-challenged mice

| Substance | induction of surface marker proteins CD69 and CD25 [1] | histological examination of lung tissues, infiltration of inflammatory cells (OVA-challenged mice) | infiltration of inflammatory cells (eosinophils, macrophages, neutrophils, lymphocytes) into BAL fluid (OVA-challenged mice; 25 μg) | production of eotaxin and Th2 type cytokines (IL-5, IL-6, IL-13) in BAL fluid (OVA-challenged mice; [4]) | inhibition of induction of IL-2 secretion [2] | time to maximal levels of intracellular protein (Jurkat T cells; after incubation) [min] | transduction into the cells (Jurkat T cells; intracellular staining) | induction of tyrosine phosphorylation of Zap70, ERK and JNK (Zap70, ERK and JNK) | inflammatory index in the lung (OVA-challenged mice; OVA-challenged mice, pretreated) | OVA-induced airway hyper-responsiveness to methacholine (OVA-challenged mice; nebulized methacholine) | neutrophil and macrophage infiltration (OVA-challenged mice; single administration of about 1 mg/kg through the nasal route before the first OVA challenge) | generation of IFN-γ and TGF-β in BAL fluid (OVA-challenged mice; [4]) | concentration that effectively blocks T cell activation [2] [pM] | level of inhibition of IL-2 secretion compared with CsA ([2]; 10 pM of Hph-1-ctCTLA-4 versus CsA) | fold lower concentration than CsA for comparable inhibition of T cell activation ([2]; versus CsA) [fold] | reduction of transduction efficiency at 4° C. (Jurkat (E6.1) cells; 4° C.) [%] | concentration dependence of protein transduction (Jurkat (E6.1) cells; Jurkat (E6.1) cells) | cells positive for β-gal enzyme activity [3] [%] |
| --- | --- | --- | --- | --- | --- | --- | --- | --- | --- | --- | --- | --- | --- | --- | --- | --- | --- | --- |
| Hph-1-ctCTLA-4YF: control protein in which two tyrosine residues essential for its negative function were mutated into phenylalanine (KMLKKRSPLTTGVFVKMPPTEPECEKQFQPFFIPIN; ctCTLA-4YF) [reference compound] | did not show any inhibition | not observed | did not show these inhibitory effects | no inhibition | neither ctCTLA-4 without Hph-1-PTD nor Hph-1-ctCTLA-4YF blocked IL-2 secretion | – | – | – | – | – | – | – | – | – | – | – | – | – |
| Hph-1-ctCTLA-4: fusion protein of Hph-1-PTD and the cytoplasmic domain of CTLA-4 (KMLKKRSPLTTGVYVKMPPTEPECEKQFQPYFIPIN; ctCTLA-4) | significantly inhibited | Inflammatory cells could not infiltrate through the mucus | prevent against the infiltration of these inflammatory cells into the BAL fluid to the levels observed in the PBS-challenged control group | significantly inhibited | concentration dependent manner at picomolar range | 60 | concentration-dependent | markedly inhibited | significantly reduced | substantially attenuated | effectively inhibited | not found to affect | 10 | better or equivalent | 1000 | – | – | – |
| Hph-1-PTD: protein transduction domain of 11 amino acids (YARVRRRGPRR) from human transcriptional factor Hph-1; tested as β-gal fusion (also: tested as β-gal fusion; listed as Homo sapiens) | – | – | – | – | – | – | – | – | – | – | – | – | – | – | – | 40 | concentration-dependent manner | ~100 |
